Measured values reported in patent US4515708A, “Corrosion inhibitors” (Exxon Research & Engineering Co., priority 1982, dated 1985).
Where two headings read alike, the source gives them in different places.

Tests used:
[1] = Corrosion Test 4 (dynamic wheel test; 3 wt% brine + Mentor 28; H2S); conditions: 24 h, 70° C.
Method: (§1) For each compound three mild steel coupons (approximately 100 mm×12 mm×1.5 mm) were tested at each concentration. Each was contacted in a 250 ml bottle with 200 ml of a test fluid either saturated with a carbon dioxide at 20° C. or containing 100 ppm hydrogen sulphide or having both CO2 and H2 S present in those amounts. The test fluid was treated with a 30% aqueous solution of the compound under test at 2, 10, 50 and 250 ppm except where indicated to the contrary. The coupon was subjected to a dynamic wheel test in which the bottle was mounted radially on the periphery of 650 mm diameter wheel which was rotated at about 40 rpm for 24 hours at 70° C. The weight loss was obtained, and also measured in a control experiment where no inhibitor was present. From this the % protection was calculated as % reduction in weight loss.
(§2) Test fluid: 100 ml 3 wt% brine+100 ml Mentor 28
Corrosives: 100 ppm H2 S (prior nitrogen purge)

[2] = Corrosion Test 1 (dynamic wheel test; 3 wt% brine/Mentor 28; CO2 + H2S); conditions: 24 h, 70° C.
Method: as §1
Test fluid: 100 ml 3 wt% brine/100 ml Mentor 28 (Mentor®28 is a depolarised kerosene available from Exxon Chemical Company)
(§3) Corrosives: Saturated CO2 +100 ppm H2 S

[3] = Film persistency corrosion test; conditions: CO2 + H2S, 24 h, 70° C.
Method: […] A test fluid made up of equal proportions of 3 wt% brine and Mentor 28 was used, saturated with CO2 and containing 100 ppm H2 S as corrosives. Coupons were used as described for the previous corrosion test. A coupon was first immersed in test fluid containing corrosives and the inhibitor under test for 1 hour, then rinsed for 1 hour in a similar test fluid containing no inhibitor and finally transferred to a further test fluid again containing no inhibitor in which the dynamic wheel test was carried out at 70° C. for 24 hours.

[4] = Solubility Test (35 wt% solution in isopropylalcohol shaken with water, brine or heptane); type: physicochemical
Method: The active material under test was made up into a 35 wt% solution in isopropylalcohol (IPA). 0.3 ml of this solution was shaken with 10 ml of each of the liquids in which solubility is to be tested: water, 5 wt% NaCl solution (brine) and heptane. The mixture was observed after 30 minutes and 24 hours.

[5] = Emulsion Test (3 wt% brine / heptane); type: physicochemical; set-up: Emulsion thickness after 30 mins: unit not given here; conditions: for Time to break emulsion: 1 ml of 35 wt% IPA solution, 50 ml 3 wt% brine, 50 ml heptane; for Appearance after 30 mins, hydrocarbon: hydrocarbon layer; for Appearance after 30 mins, hydrocarbon / Appearance after 30 mins, water / Emulsion thickness after 30 mins: 50 ml 3 wt% brine/50 ml heptane; for Appearance after 30 mins, water: water layer
Method: 1 ml of the solutions used for Test A was shaken with 50 ml of 3 wt% brine and 50 ml of heptane for 1 minute in a 150 ml bottle. The emulsion was observed, and the time noted for the emulsion to break and form a clean interface with clear liquid layers. If at 30 minutes this had not occurred, the appearance was recorded together with the thickness of any persisting emulsion.

[6] = Corrosion Test 2 (dynamic wheel test; 3 wt% brine; CO2 + H2S); conditions: 24 h, 70° C.
Method: as §1
Test Fluid: 200 ml 3 wt% brine
as §3

[7] = Corrosion Test 3 (dynamic wheel test; 3 wt% brine + Mentor 28; CO2 only); conditions: 24 h, 70° C.
Method: as §1, §2
Corrosives: Saturated CO2 only

[8] = 0.3 ml of 35 wt% IPA solution in 10 ml heptane, 30 minutes and 24 hours
[9] = 0.3 ml of 35 wt% IPA solution in 10 ml water, observed after 30 minutes and 24 hours
[10] = 0.3 ml of 35 wt% IPA solution in 10 ml 5 wt% NaCl solution, 30 minutes and 24 hours

Row | SMILES | % Protection ([1]; 2 ppm) [%] | % Protection ([1]; 10 ppm) [%] | % Protection ([1]; 50 ppm) [%] | % Protection ([1]; 250 ppm) [%] | % Protection ([2]; 2 ppm, 30% solution) [%] | % Protection ([2]; 10 ppm, 30% solution) [%] | % Protection ([2]; 50 ppm, 30% solution) [%] | % Protection ([2]; 250 ppm, 30% solution) [%] | % Protection ([3]; 500 ppm) [%] | % Protection ([3]; 1000 ppm) [%] | % Protection ([3]; 5000 ppm) [%] | Time to break emulsion [5] [min] | Appearance after 30 mins, hydrocarbon [5] | Appearance after 30 mins, water [5] | % Protection ([6]; 2 ppm) [%] | % Protection ([6]; 10 ppm) [%] | % Protection ([6]; 50 ppm) [%] | % Protection ([6]; 250 ppm) [%] | % Protection ([7]; 2 ppm) [%] | SOLUBILITY IN: Water [4, 9] | further results
1 | CCCCCCNCCc1ccccn1 [Example 1] | 0 | 22 | 55 | 55 | 15 | 73 | 79 | 91 | 18 | 25 | 17 | 30 | clear | clear | 13 | 57 | 83 | 93 | – | – | SOLUBILITY IN: Brine [4]: S; SOLUBILITY IN: Heptane [4]: S; SOLUBILITY IN: Water [4]: S
2 | CCCCCCCCCCCCNCCc1ccccn1 [Example 4] | 20 | 42 | 50 | 66 | 21 | 73 | 93 | 94 | 14 | 14 | 14 | > 30 | hazy | hazy | 24 | 94 | 95 | 96 | 0 | S | % Protection ([7]; 10 ppm): 0%; % Protection ([7]; 50 ppm): 7%; % Protection ([7]; 250 ppm): 61%; SOLUBILITY IN: Heptane [4, 8]: S
3 | CCCCCCCCCCCCCCCCCCNCCc1ccccn1 [Example 7] | – | – | – | – | 13 | 52 | 87 | 95 | 13 | 10 | 19 | > 30 | emulsified | clear | 81 | 89 | 99 | 99 | 2 | S | % Protection ([7]; 10 ppm): 22%; % Protection ([7]; 50 ppm): 48%; % Protection ([7]; 250 ppm): 67%; SOLUBILITY IN: Heptane [4, 8]: S
4 | c1ccc(CNCCc2ccccn2)cc1 [Example 8] | 8 | 12 | 40 | 55 | 21 | 72 | 81 | 81 | 19 | 22 | 24 | > 30 | clear | hazy | 37 | 69 | 75 | 85 | 13 | S | % Protection ([7]; 10 ppm): 32%; % Protection ([7]; 50 ppm): 34%; % Protection ([7]; 250 ppm): 37%; % Protection ([2]; 2 ppm, * active material added as undiluted compound): 46%; % Protection ([2]; 10 ppm, * active material added as undiluted compound): 53%; % Protection ([2]; 50 ppm, * active material added as undiluted compound): 88%; % Protection ([2]; 250 ppm, * active material added as undiluted compound): 97%; SOLUBILITY IN: Heptane [4, 8]: S
5 | NCCNCCNCCc1ccccn1 [Example 15] | – | – | – | – | 32 | 72 | 80 | 87 | 13 | 11 | 17 | 10 | clear | clear | 22 | 63 | 81 | 87 | – | S | SOLUBILITY IN: Brine [4, 10]: S
6 | CCCCCCNCCc1ccncc1 [Example 22] | 8 | 50 | 67 | 67 | 41 | 67 | 81 | 87 | 19 | 20 | 23 | 1 | clear | clear | 11 | 9 | 41 | 74 | 9 | – | % Protection ([7]; 10 ppm): 5%; % Protection ([7]; 50 ppm): 13%; % Protection ([7]; 250 ppm): 7%; SOLUBILITY IN: Brine [4]: S; SOLUBILITY IN: Heptane [4]: S; SOLUBILITY IN: Water [4]: S
7 | CCCCCCCCCCCCNCCc1ccncc1 [Example 25] | 11 | 17 | 57 | 78 | 28 | 53 | 88 | 96 | 17 | 15 | 20 | > 30 | hazy | hazy | 5 | 44 | 79 | 94 | 10 | S | % Protection ([7]; 10 ppm): 6%; % Protection ([7]; 50 ppm): 21%; % Protection ([7]; 250 ppm): 27%; SOLUBILITY IN: Heptane [4, 8]: S; Emulsion thickness after 30 mins [5]: 0.2
8 | CCCCCCCCCCCCCCCCCCNCCc1ccncc1 [Example 28] | 2 | 3 | 49 | 56 | 8 | 23 | 48 | 87 | 16 | 16 | 23 | > 30 | hazy | clear | 11 | 94 | 96 | 95 | 8 | S | % Protection ([7]; 10 ppm): 12%; % Protection ([7]; 250 ppm): 9%; Emulsion thickness after 30 mins [5]: 4.0
9 | NCCNCCNCCc1ccncc1 [Example 34] | 20 | 45 | 62 | 67 | 22 | 50 | 66 | 80 | – | – | – | 1 | clear | clear | 18 | 26 | 48 | 69 | 6 | S | % Protection ([7]; 10 ppm): 11%; % Protection ([7]; 50 ppm): 13%; % Protection ([7]; 250 ppm): 18%; SOLUBILITY IN: Brine [4, 10]: S
10 | NCCNCCNCCNCCc1ccncc1 [Example 35] | – | – | – | – | – | – | – | – | 19 | 18 | 20 | 1 | clear | clear | – | – | – | – | – | S | SOLUBILITY IN: Brine [4, 10]: S
